What was measured:
Danio rerio embryo = test: BMC10 any morphological effect or mortality at 120 hpf; higher = less toxic
Description: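 ZBEscreen: dechorionated Tropical 5D zebrafish embryos were exposed from 4 hpf in 96-well plates (1% DMSO, 28 °C). All compounds were first tested at 100 µM; hits were retested at 0.005-100 µM. Morphology and mortality were scored at 120 hpf and fitted as BMC10 (3-parameter log-logistic, extra risk). The embryonic photomotor response at 24 hpf and the larval photomotor response at 120 hpf are given as lowest effect levels (K-S test, p<0.01). NA = not significant up to 100 µM; NT = not tested.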

HL-60 = test: Cell Health Index (toxicity pseudo-probability over dose series) (index 0-1); higher = more cytotoxic / cell stress;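 also: HL-60 cells exposed 4 h at 37 °C to ten threefold dilutions spanning 5 nM to 100 µM, multiparametric flow cytometry features scored by machine-learning classification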

Structure (SMILES)	BMC10 any morphological effect or mortality (Danio rerio embryo)	Cell Health Index (HL-60)
CCCn1c(=O)[nH]c2nc(-c3ccc(S(=O)(=O)N4CCN(c5ccc(Cl)cc5)CC4)cc3)[nH]c2c1=O [PSB-603]	> 100 µM	0.489
CCCCCCCCCCCCCCCC(=O)NCCO [Palmitoyl ethanolamide]	> 100 µM	0.283
Nc1n[nH]c2nnc(-c3c(-c4ccccc4)nn4ccccc34)cc12	> 100 µM	0.299
CCNCc1nc2c(N)nc3ccccc3c2n1CC(C)(C)O [Gardiquimod]	> 100 µM	0.172
CC(C)Nc1cccnc1N1CCN(C(=O)c2cc3cc(NS(C)(=O)=O)ccc3[nH]2)CC1.CS(=O)(=O)O [Delavirdine]	> 100 µM	0.324
CC(O)(P(=O)([O-])O)P(=O)([O-])O.[Na+].[Na+] [Etidronic acid]	> 100 µM	0.198
COc1cc2c(=O)c(-c3ccc(O)cc3)coc2cc1O[C@@H]1O[C@H](CO)[C@@H](O)[C@H](O)[C@H]1O [Glycitin]	> 100 µM	0.158
Cl.OC[C@H]1NC[C@H](O)[C@@H](O)[C@@H]1O [Duvoglustat]	> 100 µM	0.147
N#C[C@@]1(c2ccc3c(N)ncnn23)O[C@H](CO)[C@@H](O)[C@H]1O	> 100 µM	0.185
COc1ccc(C2CC(=O)c3c(O)cc(O)cc3O2)cc1O (stereo not drawn) [Hesperetin]	> 100 µM	0.258
CC[C@H](NC(=O)[C@H](C)NC)C(=O)N1C[C@@H](O)C[C@H]1Cc1c(-c2[nH]c3cc(F)ccc3c2C[C@@H]2C[C@H](O)CN2C(=O)[C@H](CC)NC(=O)[C@H](C)NC)[nH]c2cc(F)ccc12 [Birinapant]	> 100 µM	0.282
CC(=O)CCCCn1c(=O)c2c(ncn2C)n(C)c1=O [Pentoxifylline]	> 100 µM	0.147
CC(=O)N[C@@H]([C@@H](O)[C@H](O)[C@H](O)CO)[C@@H](O)CC(=O)C(=O)O [Aceneuramic acid]	> 100 µM	0.172
CC(C)[C@H](N)C(=O)OCCOCn1cnc2c(=O)nc(N)[nH]c21.Cl [Valacyclovir]	> 100 µM	0.145
CCCCN1C[C@H](O)[C@@H](O)[C@H](O)[C@H]1CO.Cl [Miglustat]	> 100 µM	0.184
COc1ccc([C@@H]2CC(=O)c3c(O)cc(O[C@@H]4O[C@H](CO[C@@H]5O[C@@H](C)[C@H](O)[C@@H](O)[C@H]5O)[C@@H](O)[C@H](O)[C@H]4O)cc3O2)cc1O [Hesperidin]	> 100 µM	0.204
O=C(/C=C/c1ccc(O)c(O)c1)O[C@@H]1C[C@](O)(C(=O)O)C[C@@H](O)[C@H]1O [Chlorogenic acid]	> 100 µM	0.232
O=c1cc(-c2ccc(O)c(-c3c(O)cc(O)c4c(=O)cc(-c5ccc(O)cc5)oc34)c2)oc2cc(O)cc(O)c12 [Amentoflavone]	> 100 µM	0.74
CC(C)c1nc(CN(C)C(=O)N[C@H](C(=O)N[C@@H](Cc2ccccc2)C[C@H](O)[C@H](Cc2ccccc2)NC(=O)OCc2cncs2)C(C)C)cs1 [Ritonavir]	> 100 µM	0.532
O=c1c(-c2ccc(O)cc2)coc2cc(O[C@@H]3O[C@H](CO)[C@@H](O)[C@H](O)[C@H]3O)ccc12 [Daidzin]	> 100 µM	0.169
O=c1[nH]c(=O)n([C@@H]2O[C@H](CO)[C@@H](O)[C@@H]2F)cc1I [Fialuridine]	> 100 µM	0.209
O=C(OC1OC2COC(=O)c3cc(O)c(O)c(O)c3-c3c(cc(O)c(O)c3O)C(=O)OC(C2O)C1O)c1cc(O)c(O)c(O)c1 (stereo not drawn) [Corilagin]	> 100 µM	0.889

Structure (SMILES)	BMC10 any morphological effect or mortality (Danio rerio embryo)	Cell Health Index (HL-60)
CS(=O)(=O)O.Cc1c(O)cccc1C(=O)N[C@@H](CSc1ccccc1)[C@H](O)CN1C[C@H]2CCCC[C@H]2C[C@H]1C(=O)NC(C)(C)C [Nelfinavir]	> 100 µM	0.453
CCCCCCCCCCCCCCCCCCCCCCO [Docosanol]	> 100 µM	0.266
CC1=CC(=O)/C(=C/c2ccc(O)c(O)c2)O1 [Inotilone]	> 100 µM	0.76
O=C(O)c1ccc2nc(-c3ccccc3)c(-c3ccccc3)nc2c1 [2,3-diphenylquinoxaline-6-carboxylic acid]	> 100 µM	0.217
O=C(O)C[C@@H]1C(=O)O[C@H]2[C@@H]3OC(=O)c4cc(O)c(O)c(O)c4-c4c(cc(O)c(O)c4O)C(=O)OC[C@H]2O[C@@H](OC(=O)c2cc(O)c(O)c(O)c2)[C@@H]3OC(=O)c2cc(O)c(O)c3c2[C@H]1[C@H](O)C(=O)O3 [Chebulagic acid]	> 100 µM	0.874
CC1(C)[C@@H]2CC[C@@]1(C)[C@H](O)C2 [Isoborneol]	> 100 µM	0.173
Cl.NCC(=O)CCC(=O)O [5-Aminolevulinic acid]	> 100 µM	0.194
Nc1ccn([C@@H]2CS[C@H](CO)O2)c(=O)n1 [Lamivudine]	> 100 µM	0.2
Cc1ccc2c(=O)c3cccc(CC(=O)O)c3oc2c1C [Vadimezan]	> 100 µM	0.169
CC(=O)OCC(CCn1cnc2cnc(N)nc21)COC(C)=O [Famciclovir]	> 100 µM	0.254
CCCC(CCC)C(=O)O [Valproic acid]	> 100 µM	0.188
C[C@@H]1O[C@@H](O[C@@H]2[C@@H](O)[C@H](OCCc3ccc(O)c(O)c3)O[C@H](CO)[C@H]2OC(=O)/C=C/c2ccc(O)c(O)c2)[C@H](O)[C@H](O)[C@H]1O [Verbascoside]	> 100 µM	0.843
O=c1[nH]c(=O)n([C@H]2C[C@H](O)[C@@H](CO)O2)cc1I [Idoxuridine]	> 100 µM	0.205
COC(=O)N[C@H](C(=O)N1CCC[C@H]1c1nc2cc([C@H]3CC[C@H](c4cc5nc([C@@H]6CCCN6C(=O)[C@@H](NC(=O)OC)[C@@H](C)OC)[nH]c5cc4F)N3c3cc(F)c(N4CCC(c5ccc(F)cc5)CC4)c(F)c3)c(F)cc2[nH]1)[C@@H](C)OC [Pibrentasvir]	> 100 µM	0.268
CCN(CC)CCCC(C)Nc1ccnc2cc(Cl)ccc12.O=P(O)(O)O.O=P(O)(O)O (stereo not drawn) [Chloroquine]	> 100 µM	0.236
Cl.c1ccc([C@H]2CN3CCSC3=N2)cc1 [(-)-Levamisole]	> 100 µM	0.173
Cl.Nc1ccn([C@@H]2O[C@H](CO)[C@@H](O)C2(F)F)c(=O)n1 [Gemcitabine]	> 100 µM	0.172
O=c1c(O[C@@H]2O[C@H](CO)[C@H](O)[C@H](O)[C@H]2O)c(-c2ccc(O)c(O)c2)oc2cc(O)cc(O)c12 [Quercetin 3-D-galactoside]	> 100 µM	0.218
CC(C)Cc1ncc(Cc2ccccc2)[nH]c1=O [Pheleuin]	> 100 µM	0.182
Cn1c(CNc2ccc(C(=N)N)cc2)nc2cc(C(=O)N(CCC(=O)O)c3ccccn3)ccc21 [Dabigatran]	> 100 µM	0.137
CCOCc1nc2c(N)nc3ccccc3c2n1CC(C)(C)O [Resiquimod]	> 100 µM	0.38
CCN(CCO)CCCC(C)Nc1ccnc2cc(Cl)ccc12.O=S(=O)(O)O (stereo not drawn) [Hydroxychloroquine]	> 100 µM	0.211

From the supplement of paper PMC11821682
